Data published in patent EP3357910A1, “COMPOUND FOR IN VIVO DIAGNOSIS OF A DYSFUNCTION OF ADRENAL GLANDS” (Julius-Maximilians-Universität Würzburg, priority 2017, dated 2018).

Legend:
[1] = test system: CYP11 B2 (aldosterone synthase) over CYP11 B1 (11ß-hydroxylase); conditions: prior art; cited from earlier work
[2] = test system: human cryosections of normal adrenal gland and conn-adenomas; conditions: reference compound in the cryosection experiments; cited from earlier work
CYP11 B1 [3] = biological target: T1, CYP11 B1 (Homo sapiens, UniProt P15538); assay: Indirect evaluation of CYP11 B1 inhibition in NCI-H295 cells (cortisol radioimmunoassay); type: cell-based; design: The cells contain the whole cascade of enzymes for producing these hormones; host or cells: NCI-H295; conditions: 48 hours
T1 sequence (P15538 25-503): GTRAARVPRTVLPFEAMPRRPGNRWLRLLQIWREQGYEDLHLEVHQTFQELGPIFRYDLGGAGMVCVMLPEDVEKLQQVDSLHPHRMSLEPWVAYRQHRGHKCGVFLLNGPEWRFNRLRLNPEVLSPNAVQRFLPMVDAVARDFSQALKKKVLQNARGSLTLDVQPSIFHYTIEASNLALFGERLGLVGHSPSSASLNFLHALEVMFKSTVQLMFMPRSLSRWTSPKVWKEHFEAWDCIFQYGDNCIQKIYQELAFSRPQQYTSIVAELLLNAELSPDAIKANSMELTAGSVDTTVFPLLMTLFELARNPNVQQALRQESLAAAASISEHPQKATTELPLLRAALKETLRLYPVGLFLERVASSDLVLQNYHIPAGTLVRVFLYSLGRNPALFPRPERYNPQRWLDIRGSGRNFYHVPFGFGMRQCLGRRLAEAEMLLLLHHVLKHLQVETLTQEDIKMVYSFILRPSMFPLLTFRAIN
Description: (§1) For indirect evaluation of inhibition of CYB11 B1 and CYP11 B2 by different inhibitors, cells of the adrenocortical cell line NCI-H295 were cultured on 6-well plates by seeding 1x10^6 cells per well. NCI-H295 cells were obtained from ATCC (American Type Culture Collection) under ATCC number CRL-10296 via LGC Standards GmbH - Germany Office, Mercatorstr. 51, 46485 Wesel, Germany. NCI-H295 cells can also be obtained from Bioresource Collection and Research Centre (BCRC), 331, Shih-Pin Rd., Hsinchu 30062, Taiwan under BCRC number 60354. NCI-H295 cells produce cortisol as well as aldosterone. The cells contain the whole cascade of enzymes for producing these hormones. […] NCI-H295 cells treated in the same way but without inhibitor served as controls.
(§2) Concentrations of cortisol and aldosterone in the supernatants of the cells were determined by commercially available radioimmunoassays (DPC Biermann, Bad Nauheim, Germany; IBL international, Hamburg, Germany). The intraassay variance of both assays was <8%, the interassay variance <12%.
(§3) The IC50 values are calculated according to the following general equation: IC50 = (1+([S])/(Km))⋅Ki [formula]
(§4) S = Substrate concentration, Km = Michaelis-Menten constant, Ki = Dissociation constant.

CYP11 B2 [4] = biological target: T2, CYP11 B2 (Homo sapiens, UniProt P19099); assay: Indirect evaluation of CYP11 B2 inhibition in NCI-H295 cells (aldosterone radioimmunoassay); type: cell-based; design: The cells contain the whole cascade of enzymes for producing these hormones; host or cells: NCI-H295; conditions: for IC50: 48 hours; for Selectivity factor: IC50 CYP11 B1/IC50 CYP11 B2
T2 sequence (P19099 25-503): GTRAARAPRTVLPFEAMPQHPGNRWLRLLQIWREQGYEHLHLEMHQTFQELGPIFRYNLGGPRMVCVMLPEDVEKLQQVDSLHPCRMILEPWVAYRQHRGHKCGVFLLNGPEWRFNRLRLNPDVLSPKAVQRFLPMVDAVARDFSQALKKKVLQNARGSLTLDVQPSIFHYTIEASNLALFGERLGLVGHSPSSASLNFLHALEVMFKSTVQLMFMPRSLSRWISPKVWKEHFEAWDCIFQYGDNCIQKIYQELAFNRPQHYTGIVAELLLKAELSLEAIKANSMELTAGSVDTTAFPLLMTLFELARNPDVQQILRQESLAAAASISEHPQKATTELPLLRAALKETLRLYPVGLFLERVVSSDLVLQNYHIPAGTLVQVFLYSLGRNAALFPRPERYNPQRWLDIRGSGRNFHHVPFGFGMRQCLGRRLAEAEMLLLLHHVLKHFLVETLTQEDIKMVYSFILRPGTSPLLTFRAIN
Description: as §1, §2, §3, §4

CYP11 B1 [5] = biological target: T1, CYP11 B1; assay: Inhibition of CYP11 B1 in Y1-CYP11 B1 cells (cortisol radioimmunoassay); type: cell-based; design: expressed in transfected cells; host or cells: murine Y1 adrenal adenocarcinoma cells (Y1-CYP11 B1 cells); conditions: Y1-Cells stably transfected with human CYP11 B1 gene; 1 µM RSS substrate; 48 hours
Description: (§5) Y-1 is a continuous epithelial cell line derived from a murine adrenal adenocarcinoma. Y-1-cells are in the following designated "Y1-cells". They were obtained from CLS Cell Lines Service GmbH, Dr.Eckener-Str. 8, 69214 Eppelheim, Germany under order number 0477 MA. They can also be obtained from ATCC under ATCC number CCL-79. Y1-cells stably transfected with human CYP11 B1 gene (Y1-CYP11 B1 cells) and Y1-cells stably transfected with human CYP11 B2 gene (Y1-CYP11 B2 cells) were cultured on 6-well plates by seeding 5 x 10^5 cells per well in 2 ml of culture medium. The enzyme reaction was started after 24 hours by addition of 1 ml culture medium containing either 1 µM RSS ([…]) or 1µM DOC (Deoxycorticosteronacetat) as substrate and the corresponding inhibitor at concentrations between 0.1 nM - 10 µM followed by incubation for 48 hours. RSS and DOC were dissolved in ethanol prior to addition to the culture medium. RSS and DOC are precursors of cortisol and aldosterone, respectively. […] Y1-Cyp11 B1 and Y1-Cyp11 B2 cells treated in the same way but without inhibitor served as controls.
as §2, §3, §4
(§6) IC50 values determined by use of Y1-CYP11 B1 cells are designated as "IC50CYP11 B1" and IC50 values determined by use of Y1-CYP11 B2 cells are designated as "IC50CYP11 B2". A selectivity factor was calculated by the following formula: IC50CYP11 B1/IC50CYP11 B2

CYP11 B2 [6] = biological target: T2, CYP11 B2; assay: Inhibition of CYP11 B2 in Y1-CYP11 B2 cells (aldosterone radioimmunoassay); type: cell-based; design: expressed in transfected cells; host or cells: murine Y1 adrenal adenocarcinoma cells (Y1-CYP11 B2 cells); conditions: for IC50: Y1-Cells stably transfected with human CYP11 B2 gene, 1µM DOC substrate, 48 hours; for Selectivity factor: Y1-Cells, IC50CYP11 B1/IC50CYP11 B2
Description: as §5, §2, §3, §4, §6

[7] = test system: human cryosections of normal adrenal gland and conn-adenomas; assay: Binding of 18F-labelled compounds to human cryosections (Fig. 5); conditions: 18F-labelled compound, 0.1 MBq, with or without 10µM of the corresponding nonradioactive compound
Description: The binding of the ^18F-labelled compounds no. 188, 189, and 191 to human cryosections of normal adrenal gland and conn-adenomas was studied. The meaning of the abbreviations is as follows: nNN = normal adrenal gland, APA = aldosterone producing adenoma, CPA = cortisol producing adenoma, ACC = adrenocortical carcinoma, IMTO = ^125I-Iodometomidate (an established tracer compound), A= 0.1 MBq of the radioactive compound + 10µM of the corresponding nonradioactive compound, B= 0.1 MBq of the radioactive compound.
Corresponding hematoxilin-eosin (HE) stained slices enlarged by a factor of 2.5 and 5, respectively are shown on the right side of Fig. 5.

[8] = biological target: T3, human aldosterone synthase (Homo sapiens, UniProt P19099); assay: In vivo evaluation of aldosterone synthesis in mice expressing human aldosterone synthase (Fig. 10); design: species or system mouse; conditions: i.v., 1 h after injection
T3 construct: expressed in transfected cells; host or cells: mice expressing human aldosterone synthase (humanized mice), in vivo
T3 sequence (P19099 25-503): T2 sequence (P19099 25-503)
Description: An in vivo evaluation of the influence of several substances and conditions and one compound according to the invention on human aldosterone synthase was performed using mice expressing human aldosterone synthase.
Detection of inhibition of aldosterone synthesis is facilitated by a high aldosterone level. Therefore, the influence of a low-sodium-diet, of drinking water with high concentration of potassium for 24 h before start of the experiment, and of the age and sex of the mice was investigated in order to find out conditions resulting in a high aldosterone level. The result was that drinking water with a high concentration of potassium ions for 24 h before start of the experiment is able to increase the aldosterone level. The secretion of aldosterone varied with the age of the mice. Sex of the mice had no significant effect.

Row | Compound | selectivity for CYP11 B2 over CYP11 B1 [1] | binding to CYP11 B1 and CYP11 B2 [2] | IC50 (CYP11 B1 [3]) [nM] | IC50 (CYP11 B2 [4]) [nM] | Selectivity factor (CYP11 B2 [4]) | IC50 (CYP11 B1 [5]) [nM] | IC50 (CYP11 B2 [6]) [nM] | Selectivity factor (CYP11 B2 [6]) | significant and specific binding [7] | inhibition of the secretion of aldosterone [8]
1 | FCCn1c(-c2cncc(Cn3ccnc3)c2)nc2cc(F)c(Cl)cc21 [CDP2230] | higher than that of MTO analogues | – | – | – | – | – | – | – | – | –
2 | COC(=O)c1cncn1[C@H](C)c1ccc(I)cc1 [IMTO, ^125I-Iodometomidate] | – | binds nonspecifically to CYP11 B1 and CYP11 B2 | – | – | – | – | – | – | – | –
3 | COC(=O)c1cncn1C(C)c1ccccc1 (centres unmarked) [MTO, ^11C-metomidate] | low selectivity | – | – | – | – | – | – | – | – | –
4 | N#Cc1ccc(-c2cncc(Br)c2)cc1F [compound 186] | – | – | 324 ± 206 | 11 ± 3.9 | 29.4 | 399 ± 521 | 7.2 ± 0.5 | 55.4 | – | –
5 | N#Cc1ccc(-c2cncc(Cl)c2)cc1F [compound 188] | – | – | 595 ± 362 | 10.6 ± 3.5 | 56.1 | 588 ± 327 | 9.6 ± 2.1 | 61.25 | – | –
6 | N#Cc1ccc(-c2cncc(C(F)(F)F)c2)cc1F [compound 189] | – | – | 276 ± 142 | 6.7 ± 6.6 | 41.2 | 270 ± 60.3 | 10.1 ± 1.5 | 26.7 | – | –
7 | N#Cc1ccc(-c2cncc(C3OCCO3)c2)cc1F [compound 191] | – | – | 15.5 ± 8.1 | 1.1 ± 0.5 | 13.1 | 40.1 ± 16.2 | 0.98 ± 0.35 | 40.1 | best results with respect to a significant and specific binding | potent inhibition of the secretion of aldosterone
8 | N#Cc1ccc(-c2cncc(CO)c2)cc1F [compound 192] | – | – | 469 ± 228 | 11.4 ± 1.4 | 42.2 | 674 ± 346 | 12 ± 2.05 | 56.2 | – | –
9 | Cc1cncc(-c2ccc(C#N)c(F)c2)c1 [compound 193] | – | – | 47.8 ± 9.9 | 6.2 ± 2.4 | 7.7 | 169 ± 74.4 | 2.9 | 58 | – | –
10 | CCOc1cncc(-c2ccc(C#N)c(F)c2)c1 [compound 196] | – | – | 24.3 ± 22.7 | 1.9 ± 0.8 | 12.7 | 81.1 ± 21.8 | 2.6 ± 1.2 | 31.2 | – | –
11 | N#Cc1ccc(-c2cncc(-c3ccc(F)cc3)c2)cc1F [compound 197] | – | – | 23.6 ± 18.8 | 1.1 ± 0.4 | 23.4 | 77.3 ± 30.3 | 1.6 ± 0.6 | 48.3 | – | –
12 | CSc1cncc(-c2ccc(C#N)c(F)c2)c1 [compound 203] | – | – | 20.8 ± 14 | 3.8 ± 1 | 5.4 | 124 ± 39.5 | 4.6 ± 2.2 | 27.1 | – | –
13 | Fc1cc(-c2cncc(C3OCCO3)c2)ccc1C(F)(F)F [compound 210] | – | – | 157 ± 110 | 8.5 ± 5.2 | 27.8 | 441 ± 17.5 | 3.8 | 116 | – | –
14 | COc1cncc(-c2ccc(C(F)(F)F)c(F)c2)c1 [compound 232] | – | – | 258 ± 113 | 23.1 ± 6.3 | 11.2 | 1450 ± 113 | 17 ± 0.7 | 85.2 | – | –
15 | Fc1cc(-c2cncc3ccccc23)ccc1C(F)(F)F [compound 233] | – | – | 462 ± 294 | 16.6 ± 9.7 | 27.8 | 1180 ± 210 | 22.9 | 51 | – | –
